The values that follow come from US6579878B1, “Pharmaceutical compositions and methods for use” (priority 2000, dated 2003).

Molecules are shown by their SMILES.

The term Emax denotes the size of the effect at its maximum, as opposed to the concentration needed.

For one assay, the system named is Rat brain synaptosomes. The assay is described as follows: Neurotransmitter release from brain synaptosomes. Type of assay: biochemical. Conditions: in the presence of 10 uM ligand; percentage of release obtained with 10 uM (S)-(-)-nicotine or 300 uM TMA. The procedure:
Neurotransmitter release was measured using techniques similar to those previously published (Bencherif M, et al.: JPET 279: 1413-1421,1996).
Rat brain synaptosomes were prepared as follows: Female Sprague Dawley rats (100-200 g) were killed by decapitation after anesthesia with 70% CO2. Brains are dissected, and hippocampus, striatum, and thalamus isolated, and homogenized in 0.32 M sucrose containing 5 mM HEPES pH 7.4 using a glass/glass homogenizer. The tissue was then centrifuged for 1000×g for 10 minutes and the pellet discarded. The supernatant was centrifuged at 12000×g for 20 minutes. The resultant pellet was re-suspended in perfusion buffer (128 mM NaCl, 1.2 mM KH2PO4, 2.4 mM KCl, 3.2 mM CaCl2, 1.2 mM MgSO4, 25 mM HEPES, 1 mM Ascorbic acid, 0.01 mM pargyline HCl and 10 mM glucose pH 7.4) and centrifuged for 15 minutes at 25000×g. The final pellet was resuspended in perfusion buffer and placed in a water bath (37° C.) for 10 minutes. […] The perfusate was collected directly into scintillation vials and released radioactivity was quantified using conventional liquid scintillation techniques. Release of neurotransmitter was determined in the presence of 10 uM of various ligands and was expressed as a percentage of release obtained with a concentration of 10 uM (S)-(−)-nicotine or 300 uM TMA resulting in maximal effects.

Assay [1] concerns the target muscle-type nicotinic acetylcholine receptors (Homo sapiens, UniProt P02708+P07510+Q07001). As to the kind of experiment: Determination of interaction with muscle receptors. Conditions: percentage of the maximal activation induced by (S)-(-)-nicotine. Type of assay: cell-based. On the procedure: (§1) The determination of the interaction of the compounds with muscle receptors was carried out in accordance with the techniques described in U.S. Pat. No. 5,597,919 to Dull et al. The maximal activation for individual compounds (Emax) was determined as a percentage of the maximal activation induced by (S)-(−)-nicotine. Reported Emax values represent the amount released relative to (S)-(−)-nicotine on a percentage basis. […] Such preferable compounds have the capability to activate human CNS receptors without activating muscle-type nicotinic acetylcholine receptors. Thus, there is provided a therapeutic window for utilization in the treatment of CNS disorders.

The subject of assay [2] is ganglia-type nicotinic acetylcholine receptors. As to the kind of experiment: Determination of interaction with ganglion receptors. Type of assay: cell-based. Conditions: percentage of the maximal activation induced by (S)-(-)-nicotine. On the procedure: as §1, with “ganglionic” for “muscle”, “ganglia-type” for “muscle-type”

Sequence of muscle-type nicotinic acetylcholine receptors (P02708 21-457): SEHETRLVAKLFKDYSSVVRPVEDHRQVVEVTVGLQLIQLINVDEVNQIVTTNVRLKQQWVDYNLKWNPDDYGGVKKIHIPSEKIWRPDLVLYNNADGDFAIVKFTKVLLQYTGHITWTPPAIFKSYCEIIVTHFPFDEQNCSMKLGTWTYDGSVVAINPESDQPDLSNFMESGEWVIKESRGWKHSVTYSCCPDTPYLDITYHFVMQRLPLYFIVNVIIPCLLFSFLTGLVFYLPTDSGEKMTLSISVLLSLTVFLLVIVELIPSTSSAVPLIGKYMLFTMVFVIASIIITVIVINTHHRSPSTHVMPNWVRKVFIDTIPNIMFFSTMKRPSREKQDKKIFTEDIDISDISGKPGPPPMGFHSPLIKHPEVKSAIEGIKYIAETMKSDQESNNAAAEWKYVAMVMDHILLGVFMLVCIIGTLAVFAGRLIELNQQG
Sequence of muscle-type nicotinic acetylcholine receptors (P11230 24-501 partner): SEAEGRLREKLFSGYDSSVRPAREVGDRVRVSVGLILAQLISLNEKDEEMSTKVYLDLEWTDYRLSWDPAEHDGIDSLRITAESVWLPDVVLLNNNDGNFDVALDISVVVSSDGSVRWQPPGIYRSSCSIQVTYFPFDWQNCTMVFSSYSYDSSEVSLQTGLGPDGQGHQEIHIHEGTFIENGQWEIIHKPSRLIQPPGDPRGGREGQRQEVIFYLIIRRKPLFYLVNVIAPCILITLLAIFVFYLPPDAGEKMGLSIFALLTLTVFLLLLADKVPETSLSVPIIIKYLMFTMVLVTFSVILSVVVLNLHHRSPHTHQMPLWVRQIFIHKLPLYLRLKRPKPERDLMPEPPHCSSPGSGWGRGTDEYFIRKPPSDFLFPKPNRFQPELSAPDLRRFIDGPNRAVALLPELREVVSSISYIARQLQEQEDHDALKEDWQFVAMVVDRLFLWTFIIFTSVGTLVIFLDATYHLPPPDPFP
Sequence of muscle-type nicotinic acetylcholine receptors (Q07001 22-517): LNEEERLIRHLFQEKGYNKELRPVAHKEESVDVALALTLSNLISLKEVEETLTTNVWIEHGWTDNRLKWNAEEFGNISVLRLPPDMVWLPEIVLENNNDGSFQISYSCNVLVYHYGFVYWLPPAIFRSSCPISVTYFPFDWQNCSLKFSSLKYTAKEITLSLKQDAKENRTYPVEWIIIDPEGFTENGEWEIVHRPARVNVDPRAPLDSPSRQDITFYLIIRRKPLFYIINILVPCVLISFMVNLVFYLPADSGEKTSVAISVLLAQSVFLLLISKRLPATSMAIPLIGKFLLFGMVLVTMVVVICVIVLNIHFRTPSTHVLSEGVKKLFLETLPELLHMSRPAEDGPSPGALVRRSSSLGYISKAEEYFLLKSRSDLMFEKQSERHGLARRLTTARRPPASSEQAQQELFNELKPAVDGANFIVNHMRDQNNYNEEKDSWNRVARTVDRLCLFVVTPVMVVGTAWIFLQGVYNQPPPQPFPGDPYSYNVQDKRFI
Sequence of muscle-type nicotinic acetylcholine receptors (P07510 23-517): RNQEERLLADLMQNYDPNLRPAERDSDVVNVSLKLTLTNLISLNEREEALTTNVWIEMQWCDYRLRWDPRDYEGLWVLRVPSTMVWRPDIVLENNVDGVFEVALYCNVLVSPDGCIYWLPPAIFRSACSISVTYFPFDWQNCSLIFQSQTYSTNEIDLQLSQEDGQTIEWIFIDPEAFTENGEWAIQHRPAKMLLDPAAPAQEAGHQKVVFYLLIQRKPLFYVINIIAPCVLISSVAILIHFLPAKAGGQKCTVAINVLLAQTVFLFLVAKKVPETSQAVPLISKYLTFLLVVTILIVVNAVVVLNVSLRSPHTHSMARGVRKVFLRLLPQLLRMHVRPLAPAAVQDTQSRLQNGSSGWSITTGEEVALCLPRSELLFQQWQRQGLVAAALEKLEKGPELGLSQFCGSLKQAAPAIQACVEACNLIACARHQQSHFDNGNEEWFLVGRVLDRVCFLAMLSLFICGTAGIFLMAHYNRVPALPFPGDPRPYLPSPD

Regarding `c1cncc(CC2CC3CCC2N3)c1` (stereo not drawn) [Example 1, 2-((3-pyridyl)methyl)-7-azabicyclo[2.2.1]heptane], the “Emax, neurotransmitter release” value in the assay on Rat brain synaptosomes was determined as 15%. This compound also registered an Emax in assay [1] of 52%. For the same compound, in assay [2], the “Emax, maximal activation at ganglia-type receptors” value is on record as 48%.
